Data: ChEMBL document CHEMBL3301472, “MMV Malaria Box HIV and cytotoxicity screening”

Legend:
[1] = MMV: MTT Cytotoxicity Assay Day 3 pi, U87-CD4-CCR5 cells, % cell death @ 5mM compound; type: toxicity, cell-based; conditions: human, u87-cd4-ccr5, 5000 µM
[2] = MMV: MTT Cytotoxicity Assay Day 3 pi, U87-CD4-CXCR4 cells, % cell death @ 5mM compound; type: toxicity, cell-based; conditions: human, u87-cd4-cxcr4, 5000 µM
[3] = MMV: MTT Cytotoxicity Assay Day 7 pi of Assay #6 (compound washed out Day 1 pi), U87-CD4-CCR5 cells, % cell death @ 5mM compound; type: toxicity, cell-based; conditions: human, u87-cd4-ccr5, 5000 µM
[4] = MMV: MTT Cytotoxicity Assay Day 7 pi of Assay #7 (compound washed out Day 1 pi), U87-CD4-CXCR4 cells, % cell death @ 5mM compound; type: toxicity, cell-based; conditions: human, u87-cd4-cxcr4, 5000 µM
[5] = tested on: Human immunodeficiency virus 1; experiment: MMV: HIV JRFL CCR5-tropic replication-competent virus, NO washout, P24 ELISA Day 7 pi, U87-CD4-CCR5, % inhibition at 5 mM compound; type: functional; design: dose or concentration left out as unconfirmed; conditions: Human immunodeficiency virus 1, JR-FL, U87/CD4/CCR5, 168 h
[6] = MMV: MTT Cytotoxicity Assay Day 7 pi of Assay #10 (NO washout), U87-CD4-CCR5 cells, % cell death @ 5mM compound; type: toxicity, cell-based; conditions: human, u87-cd4-ccr5, 5000 µM
[7] = MMV: MTT Cytotoxicity Assay Day 7 pi of Assay #11 (NO washout), U87-CD4-CXCR4 cells, % cell death @ 5mM compound; type: toxicity, cell-based; conditions: human, u87-cd4-cxcr4, 5000 µM
[8] = tested on: Human immunodeficiency virus 1; experiment: MMV: HIV CCR5-tropic env JRFL pseudovirus assay produces luciferase signal in lieu of replicating viral particles Day 3 pi, U87-CD4-CCR5, % inhibition at 5 mM compound; type: functional; design: dose or concentration left out as unconfirmed; conditions: Human immunodeficiency virus 1, JR-FL, U87/CD4/CCR5, 72 h
[9] = tested on: Human immunodeficiency virus 1; experiment: MMV: HIV CXCR4-tropic env NL4-3 pseudovirus assay produces luciferase signal in lieu of replicating viral particles Day 3 pi, U87-CD4-CXCR4, % inhibition at 5 mM compound; type: functional; design: dose or concentration left out as unconfirmed; conditions: Human immunodeficiency virus 1, NL4-3, U87.CD4.CXCR4, 72 h
[10] = tested on: Human immunodeficiency virus 1; experiment: MMV: HIV NL4-3 CXCR4-tropic replication-competent virus, NO washout, P24 ELISA Day 7 pi, U87-CD4-CXCR4, % inhibition at 5 mM compound; type: functional; design: dose or concentration left out as unconfirmed; conditions: Human immunodeficiency virus 1, NL4-3, U87.CD4.CXCR4, 168 h
[11] = tested on: Human immunodeficiency virus 1; experiment: MMV: HIV NL4-3 CXCR4-tropic replication-competent virus, virus & compound washed out Day 1 pi, P24 ELISA Day 7 pi, U87-CD4-CXCR4, % inhibition at 5 mM compound; type: functional; design: dose or concentration left out as unconfirmed; conditions: Human immunodeficiency virus 1, NL4-3, U87.CD4.CXCR4
[12] = tested on: Human immunodeficiency virus 1; experiment: MMV: HIV JRFL CCR5-tropic replication-competent virus, virus & compound washed out Day 1 pi, P24 ELISA Day 7 pi, U87-CD4-CCR5, % inhibition at 5 mM compound; type: functional; design: dose or concentration left out as unconfirmed; conditions: Human immunodeficiency virus 1, JR-FL
[13] = tested on: Human immunodeficiency virus 1; experiment: MMV: HIV CXCR4-tropic env HxB2 pseudovirus assay produces luciferase signal in lieu of replicating viral particles Day 3 pi, U87-CD4-CXCR4, % inhibition at 5 mM compound; type: functional; design: dose or concentration left out as unconfirmed; conditions: Human immunodeficiency virus 1, HxB2, U87.CD4.CXCR4, 72 h

Row | Structure (SMILES) | % Cell Death [1] | % Cell Death [2] | % Cell Death [3] | % Cell Death [4] | inhibition [5] | % Cell Death [6] | % Cell Death [7] | inhibition [8] | inhibition [9] | inhibition [10] | inhibition [11] | inhibition [12] | inhibition [13]
1 | Cc1cc(N(C)C)nc(Nc2ccc(NC(=O)Nc3ccccc3)cc2)n1 | 12 | 40 | -5 | -7 | 4% | 18 | -30 |  |  |  |  |  | 
2 | CCN1CCN(c2cc(C)c3cc(NC(=O)c4ccc(OC)c(OC)c4)ccc3n2)CC1 | 95 | 36 | 93 | 61 | -2% | 43 | 55 |  |  |  |  |  | 
3 | CCc1c(C)c(=N)c2ccccc2n1C.I | 22 | 100 | 30 | -17 | 8% | -10 | -5 |  |  |  |  |  | 
4 | Cc1ccccc1OCCSc1nc2ccc(NC(=O)c3ccccc3)cc2s1 | 96 | 36 | 31 | 1 |  | 106 | 100 | 10% |  |  |  |  | 
5 | COc1ccccc1C(=O)ON=C(N)Cc1cccc2ccccc12 | 23 | 47 | -17 | 42 |  | 43 | -11 |  | 1% | 0% |  |  | 
6 | CCN1CCN(Cc2ccc(NC(=O)c3cc4ccc5cccnc5c4[nH]3)cc2)CC1 | -23 | 22 | 38 | -2 | 3% | 9 | 26 |  |  |  |  |  | 
7 | Nc1ccc(-c2nc3cc(Oc4ccc(Oc5ccc6[nH]c(-c7ccc(N)cc7)nc6c5)cc4)ccc3[nH]2)cc1 | 21 | 51 | 12 | 68 |  | 113 | 21 | 4% |  |  |  |  | 
8 | Cc1cc(C)c2c(c1)OCN(Cc1ccccc1Cl)C2 | -12 | 31 | 20 | -14 | -2% | -6 | 33 |  |  |  |  |  | 
9 | CC(=O)Nc1nnc(SCc2c(C)cc(C(C)(C)C)cc2C)s1 | 14 | 27 | 3 | 10 |  | 3 | 6 | 8% |  |  |  |  | 
10 | COc1cccc(C2(C)Nc3ccccc3-c3nc4ccccc4n32)c1 (centres undefined) | -22 | 28 | 37 | 25 |  | 35 | 92 | 9% |  |  |  |  | 
11 | CSC1=NC(=Nc2c(C)cccc2C)C2(CCC(C(C)(C)C)CC2)N1c1ccc(Cl)cc1 (centres undefined) | 3 | 6 | 1 | -6 |  | 12 | 0 |  |  | 9% |  |  | 
12 | CC1(c2ccccc2)Nc2ccccc2-c2nc3ccccc3n21 (centres undefined) | 10 | 24 | -21 | -19 |  | 29 | -43 |  |  | 4% |  |  | 
13 | Br.CCN(CC)S(=O)(=O)c1ccc(-c2csc(Nc3ccc(C)c(C)c3)n2)cc1 | -17 | 29 | 20 | -19 |  | 26 | 11 | -2% |  |  | 3% |  | 
14 | Cc1ccc(OCCCCCCNCCO)c(C)c1 | -3 | 28 | 30 | -10 |  | 15 | -10 | -2% |  |  |  |  | 
15 | CCCn1c(=N)c(C(=O)NC2CCCCC2)cc2c(=O)n3cccc(C)c3nc21 | 29 | 35 | 0 | -17 |  | 43 | -51 |  |  | 4% |  |  | 
16 | COc1cc(OC)c(N(C)C(=O)c2cc3c(s2)-c2ccccc2S(=O)(=O)C3)cc1Cl | 28 | 33 | 22 | -18 |  | -2 | -30 |  |  | 2% | 7% |  | 
17 | Nc1ccn([C@@H]2O[C@H](CO)[C@@H](O)[C@H]2O)c(=O)n1 [CYTIDINE] | -30 | 28 | -9 | 24 |  | 26 | 0 |  |  | 6% |  |  | 
18 | Cc1ccc(S(=O)(=O)c2c(COC(=O)c3cccc(C)c3)c(-c3ccccc3)nn2C)cc1 | 27 | 22 | 5 | 22 |  | 16 | 31 |  |  | 7% |  | 5% | 
19 | c1ccc(CNc2nc(Nc3ccccc3)nc3ccccc23)cc1 | 36 | 53 | -8 | -7 |  | 27 | 0 | 6% |  | -2% |  |  | 9%
20 | CCN(CC)CCn1c(=N)n(CC(O)c2ccc(Cl)c(Cl)c2)c2ccccc21.Cl (centres undefined) | 18 | 4 | 14 | 20 |  | -29 | 52 |  | 10% | 0% |  |  | 
21 | O=C(NC1CCN(Cc2ccccc2)CC1)c1cc(-c2cccnc2)nc2ccc(Cl)cc12 | -9 | 34 | 11 | -10 |  | 43 | 40 | 8% |  |  |  |  | 8%
22 | CCCCCCOC(=O)C1=C(C)NC(=O)NC1c1ccccc1F (centres undefined) | 16 | 29 | -10 | -33 |  | 40 | -34 | -2% |  |  |  |  | 3%
23 | CCCc1cc(O)c2c3c(c(=O)oc2c1)CN(C)CC3 | 22 | 44 | -8 | 57 |  | 45 | 40 |  | 4% | 6% |  |  | 
24 | O=C(O)C(=O)O.Oc1ccccc1CN1CCN(C(c2ccccc2)c2ccccc2)CC1 | 4 | 12 | 2 | 28 |  | 22 | 56 |  |  | 0% |  |  | 
25 | CCOC(=O)c1cnc2ccc(OC)cc2c1Nc1ccc(N2CCN(C)CC2)cc1 | -13 | 37 | 5 | 17 |  | 11 | -14 | -2% | 6% |  | 8% |  | -1%
26 | OC1CCCCC1C1(NC(=S)Nc2ccccc2)CCCCC1 (centres undefined) | 23 | 11 | -5 | 29 |  | 4 | -25 |  |  | 8% |  | 7% | 
27 | COc1ccc(-c2nonc2NC(=O)c2cccc(Cl)c2)cc1OC | 61 | 45 | 13 | 49 |  | 100 | 97 | -2% |  |  |  |  | 
28 | Cc1sc(NC(=O)c2ccco2)c(C(c2cccnc2)N2CCC(Cc3ccccc3)CC2)c1C (centres undefined) | 110 | 88 | 81 | 94 |  | 107 | 104 | 8% |  |  |  |  | 
29 | COc1ccc(C(=O)Nc2nonc2-c2ccc(OC)c(OC)c2)cc1Cl | 64 | 47 | 13 | 53 |  | 100 | 67 | 5% |  |  |  | 6% | 9%
